# According to PubChem BioAssay (NCI):
#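 Compound exposure: 48 hours, 5 concentrations, 96-well plates. GI50: concentration for 50% inhibition of growth. Definition used: TGI = concentration required for complete inhibition of growth.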
# Tests used:
# Assay in all cases: NCI-60 cell line screen, 48 h
# [1] = system: A498 renal
# [2] = system: ACHN renal
# [3] = system: HL-60(TB) leukemia
# [4] = system: K-562 leukemia
# [5] = system: NCI/ADR-RES ovarian
# [6] = system: RXF 393 renal
# [7] = system: SK-OV-3 ovarian
# [8] = system: SNB-75 CNS
# [9] = system: 786-0 renal
# [10] = system: A549 NSCLC
# [11] = system: BT-549 breast
# [12] = system: CAKI-1 renal
# [13] = system: COLO 205 colon
# [14] = system: DU-145 prostate
# [15] = system: EKVX NSCLC
# [16] = system: HCC-2998 colon
# [17] = system: HCT-116 colon
# [18] = system: HCT-15 colon
# [19] = system: HOP-62 NSCLC
# [20] = system: HOP-92 NSCLC
# [21] = system: HS 578T breast
# [22] = system: HT29 colon
# [23] = system: IGROV1 ovarian
# [24] = system: KM12 colon
# [25] = system: LOX IMVI melanoma
# [26] = system: M14 melanoma
# [27] = system: MALME-3M melanoma
# [28] = system: MCF7 breast
# [29] = system: MDA-MB-231 breast
# [30] = system: MDA-MB-435
# [31] = system: NCI-H226 lung
# [32] = system: NCI-H23 lung
# [33] = system: NCI-H460 lung
# [34] = system: NCI-H522 lung
# [35] = system: OVCAR-4 ovarian
# [36] = system: OVCAR-5 ovarian
# [37] = system: OVCAR-8 ovarian
# [38] = system: PC-3 prostate
# [39] = system: SF-268 CNS
# [40] = system: SF-295 CNS
# [41] = system: SF-539 CNS
# [42] = system: SK-MEL-2 melanoma
# [43] = system: SK-MEL-28 melanoma
# [44] = system: SK-MEL-5 melanoma
# [45] = system: SN12C renal
# [46] = system: SNB-19 CNS
# [47] = system: SR leukemia
# [48] = system: SW-620 colon
# [49] = system: T-47D breast
# [50] = system: TK-10 renal
# [51] = system: U251 CNS
# [52] = system: UACC-257 melanoma
# [53] = system: UACC-62 melanoma
# [54] = system: UO-31 renal
compound,measurement,setting,value
NC(N)=Nc1ccc(Oc2cccc(Nc3ccc(Cl)c(C(F)(F)F)c3)c2)cn1,GI50,[1],1.23 µM
same,TGI,[1],2.67 µM
same,GI50,[2],1.74 µM
same,TGI,[2],3.21 µM
same,GI50,[3],1.89 µM
same,TGI,[3],4.52 µM
same,GI50,[4],1.91 µM
same,TGI,[4],> 100 µM
same,GI50,[5],3.74 µM
same,TGI,[5],30.5 µM
same,GI50,[6],1.78 µM
same,TGI,[6],3.58 µM
same,GI50,[7],1.89 µM
same,TGI,[7],3.43 µM
same,GI50,[8],1.42 µM
same,TGI,[8],2.77 µM
COc1cc2c(cc1OC)C(Sc1ccc(C)cc1)c1c(nc(N)c(C#N)c1N)O2 (centres undefined),GI50,[9],1.42 µM
same,TGI,[9],2.79 µM
same,GI50,[1],1.38 µM
same,TGI,[1],2.67 µM
same,GI50,[10],1.73 µM
same,TGI,[10],3.27 µM
same,GI50,[2],1.51 µM
same,TGI,[2],2.86 µM
same,GI50,[11],1.22 µM
same,TGI,[11],2.49 µM
same,GI50,[12],1.05 µM
same,TGI,[12],2.25 µM
same,GI50,[13],1.49 µM
same,TGI,[13],2.87 µM
same,GI50,[14],1.68 µM
same,TGI,[14],3.05 µM
same,GI50,[15],1.69 µM
same,TGI,[15],3.13 µM
same,GI50,[16],1.58 µM
same,TGI,[16],3.12 µM
same,GI50,[17],1.51 µM
same,TGI,[17],3.03 µM
same,GI50,[18],1 µM
same,TGI,[18],2.43 µM
same,GI50,[3],0.431 µM
same,TGI,[3],4.05 µM
same,GI50,[19],1.8 µM
same,TGI,[19],3.24 µM
same,GI50,[20],1.51 µM
same,TGI,[20],2.93 µM
same,GI50,[21],1.97 µM
same,TGI,[21],4.87 µM
same,GI50,[22],1.77 µM
same,TGI,[22],3.43 µM
same,GI50,[23],0.715 µM
same,TGI,[23],2.04 µM
same,GI50,[4],0.558 µM
same,TGI,[4],> 100 µM
same,GI50,[24],1.63 µM
same,TGI,[24],3.01 µM
same,GI50,[25],1.05 µM
same,TGI,[25],2.42 µM
same,GI50,[26],1.77 µM
same,TGI,[26],3.29 µM
same,GI50,[27],1.74 µM
same,TGI,[27],3.24 µM
same,GI50,[28],0.742 µM
same,TGI,[28],2.27 µM
same,GI50,[29],1.65 µM
same,TGI,[29],3.13 µM
same,GI50,[30],1.58 µM
same,TGI,[30],3.01 µM
same,GI50,[31],1.9 µM
same,TGI,[31],3.99 µM
same,GI50,[32],1.59 µM
same,TGI,[32],3.1 µM
same,GI50,[33],1.76 µM
same,TGI,[33],3.36 µM
same,GI50,[34],1.62 µM
same,TGI,[34],3.07 µM
same,GI50,[5],1.67 µM
same,TGI,[5],3.37 µM
same,GI50,[35],1.66 µM
same,TGI,[35],3.07 µM
same,GI50,[36],1.81 µM
same,TGI,[36],3.31 µM
same,GI50,[37],1.55 µM
same,TGI,[37],2.91 µM
same,GI50,[38],1.51 µM
same,TGI,[38],2.93 µM
same,GI50,[6],1.15 µM
same,TGI,[6],2.42 µM
same,GI50,[39],1.56 µM
same,TGI,[39],3.08 µM
same,GI50,[40],1.6 µM
same,TGI,[40],3.05 µM
same,GI50,[41],1.57 µM
same,TGI,[41],2.93 µM
same,GI50,[42],1.59 µM
same,TGI,[42],2.99 µM
same,GI50,[43],1.67 µM
same,TGI,[43],3.06 µM
same,GI50,[44],1.78 µM
same,TGI,[44],3.22 µM
same,GI50,[7],1.91 µM
same,TGI,[7],3.35 µM
same,GI50,[45],1.49 µM
same,TGI,[45],2.86 µM
same,GI50,[46],1.46 µM
same,TGI,[46],2.84 µM
same,GI50,[8],1.22 µM
same,TGI,[8],2.47 µM
same,GI50,[47],0.291 µM
same,TGI,[47],> 100 µM
same,GI50,[48],1.24 µM
same,TGI,[48],2.74 µM
same,GI50,[49],1.22 µM
same,TGI,[49],3.56 µM
same,GI50,[50],1.2 µM
same,TGI,[50],2.47 µM
same,GI50,[51],1.36 µM
same,TGI,[51],2.75 µM
same,GI50,[52],1.63 µM
same,TGI,[52],3.07 µM
same,GI50,[53],1.74 µM
same,TGI,[53],3.22 µM
same,GI50,[54],1.07 µM
same,TGI,[54],2.25 µM
